{
  "source": "patent US20030232851A1",
  "about": "“Viral treatment” (The Procter & Gamble Company, priority 1999, published 2003)",
  "format_in_all_cases": "cell-based",
  "key": {"HIV-1 cell line, CEMRF": {"tested_on": "HIV-1 cell line, CEMRF", "conditions": "for reverse transcriptase data: 7 μg/ml", "protocol": "A microtiter-based reveres transcriptase (RT) reaction is utilized (Buckheit et al (1991) AIDS Research and Human Retroviruses 7:295-302). Tritiated thymidine triphosphate (NEN)(TTP) is resuspended in distilled water at 5 Ci/ml. Poly rA and oligo dT are prepared as a stock solution which is kept at −20° C. The RT reaction buffer is prepared fresh on a daily basis and consists of 125 μl 1M EGTA, 125 μl water, 125 μl Triton X-100, 50 μl Tris (pH 7.4), 50 μl 1 MDDT, and 40 μl 1M MgCl2. These three solutions are mixed together in a ratio of 1 part TTP, 2.5 parts poly rA:oligo dT, 2.5 parts reaction buffer and 4 parts distilled water. Ten microliters of this reaction mixture is placed in a round bottom microtiter place and 15 μl of virus containing supernatant is added and mixed. The plate is incubated at 37° C. for 60 minutes. Following reaction, the reaction volume is spotted onto filter mats, washed 6 times for 5 minutes each in a 5% sodium phosphate buffer, 2 times for 1 minute each in distilled water, 2 times for 1 minute each in 70% ethanol, and then dried. The dried filter mat is placed in a plastic sample bag, Betaplate scintillation fluid is added and the bag is heat sealed. Incorporated radioactivity is quantified utilizing a Wallac Microbeta scintillation counter.\nAcute infection of most established human cell lines with HIV-1 results in the eventual establishment of a constitutive virus-producing chronically infected cell line. The cells can be passaged for long periods of time in culture without loss of virus production. These cells may be utilized to evaluate the effects of anti-HIV compounds on syncytium formation or to evaluate the effects of anti-HIV compounds on levels of virus production from these cells. […] Each of the cells contains an integrated HIV genome or provirus. Chronically infected CEM, H9 and U937 cell lines have been prepared and cultured by Southern Research Institute, Frederick Md. and are available from them.\nCEM-SS cells chronically infected with HIV isolate, for example SKI (CEM-SKI) are cultured in RPMI1640 tissue culture medium supplemented with 10% fetal bovine serum and antibiotics. Selection is performed by culturing the cells in the presence of the compound to be tested in T25 flasks. CEM-SKI or other infected cells with no added drug are used as the control cells. Cells are allowed to grow to a density of approximately 1×10^6 cells/ml and are then passaged at a 1:10 dilution. […] The drug concentration in the flask is then increased two-fold and the cells maintained as above.\nThe cell populations contain integrated copies of the HIV genome and constitutively produce HIV at relatively high levels or are latently infected and only produce virus after stimulation with phorbol esters, tumor necrosis factor or IL6 (U1 and ACH2).\nA long term in vitro study of 2-(2-thienyl)-imidazolo [4,5-b]pyridine against an HIV-1 cell line, CEMRF, was conducted at three different levels. […] CEMRF is a chronic HIV cell line."}, "HEPG22.2.15": {"tested_on": "HEPG22.2.15", "experiment": "Hepatitis B test: toxicity values"}, "TPA-induced BCBL-1 cells": {"tested_on": "TPA-induced BCBL-1 cells", "experiment": "Kaposi's Sarcoma test: toxicity values", "design": "Toxicity Values, samples 1-3 / Toxicity Values, average: scale not given here", "protocol": "(§1) The DNA copy number and the toxicity value were measured and compared with Cidofovir."}, "[1]": {"experiment": "Kaposi's Sarcoma test: toxicity values", "design": "Toxicity Values, samples 1-3 / Toxicity Values, average: scale not given here", "conditions": "human, TPA-induced BCBL-1 cells (HHV8 cell line); read-out: TC50 (the source's name)", "protocol": "as §1"}},
  "note": "Where “and” joins values, the source holds several entries; their conditions need not be identical. Equal values may be shown once. Read-outs that look alike come from different tables or passages of the source.",
  "data": [
    {"smiles": "c1csc(-c2nc3cccnc3[nH]2)c1", "note": "[2-(2-thienyl)-imidazolo [4,5-b]pyridine]", "values": [
      {"measurement": "reverse transcriptase data", "setting": "HIV-1 cell line, CEMRF; day 4", "value": 6521},
      {"measurement": "reverse transcriptase data", "setting": "HIV-1 cell line, CEMRF; day 67", "value": 9241},
      {"measurement": "reverse transcriptase data", "setting": "HIV-1 cell line, CEMRF; day 71", "value": 8422},
      {"measurement": "reverse transcriptase data", "setting": "HIV-1 cell line, CEMRF; day 74", "value": 8643},
      {"measurement": "resistance developing", "setting": "HIV-1 cell line, CEMRF; by day 186 at the 15 and 30 μg/ml level", "value": "no indication of resistance developing"},
      {"measurement": "reverse transcriptase data on continuation (in words)", "setting": "HIV-1 cell line, CEMRF; run through 242 days", "value": "data remained consistent"},
      {"measurement": "Toxicity Values, % cell control", "setting": "HEPG22.2.15; 0.64 μg/ml", "value": 108.5, "unit": "%"},
      {"measurement": "Toxicity Values, mean", "setting": "HEPG22.2.15; 0.64 μg/ml", "value": 1.359},
      {"measurement": "Toxicity Values, samples 1-3", "setting": "HEPG22.2.15; 0.64 μg/ml", "value": "1.389 and 1.334 and 1.355"},
      {"measurement": "Toxicity Values, % cell control", "setting": "HEPG22.2.15; 2 μg/ml", "value": 101.1, "unit": "%"},
      {"measurement": "Toxicity Values, mean", "setting": "HEPG22.2.15; 2 μg/ml", "value": 1.266},
      {"measurement": "Toxicity Values, samples 1-3", "setting": "HEPG22.2.15; 2 μg/ml", "value": "1.121 and 1.246 and 1.432"},
      {"measurement": "Toxicity Values, % cell control", "setting": "HEPG22.2.15; 6.4 μg/ml", "value": 101.5, "unit": "%"},
      {"measurement": "Toxicity Values, mean", "setting": "HEPG22.2.15; 6.4 μg/ml", "value": 1.271},
      {"measurement": "Toxicity Values, samples 1-3", "setting": "HEPG22.2.15; 6.4 μg/ml", "value": "1.249 and 1.157 and 1.407"},
      {"measurement": "Toxicity Values, % cell control", "setting": "HEPG22.2.15; 20 μg/ml", "value": 30.7, "unit": "%"},
      {"measurement": "Toxicity Values, mean", "setting": "HEPG22.2.15; 20 μg/ml", "value": 0.385},
      {"measurement": "Toxicity Values, samples 1-3", "setting": "HEPG22.2.15; 20 μg/ml", "value": "0.404 and 0.389 and 0.361"},
      {"measurement": "Toxicity Values, % cell control", "setting": "HEPG22.2.15; 64 μg/ml", "value": 1.4, "unit": "%"},
      {"measurement": "Toxicity Values, mean", "setting": "HEPG22.2.15; 64 μg/ml", "value": 0.017},
      {"measurement": "Toxicity Values, samples 1-3", "setting": "HEPG22.2.15; 64 μg/ml", "value": "0.017 and 0.018"},
      {"measurement": "Toxicity Values, % cell control", "setting": "HEPG22.2.15; 200 μg/ml", "value": 1.4, "unit": "%"},
      {"measurement": "Toxicity Values, mean", "setting": "HEPG22.2.15; 200 μg/ml", "value": 0.017},
      {"measurement": "Toxicity Values, samples 1-3", "setting": "HEPG22.2.15; 200 μg/ml", "value": "0.018 and 0.017"},
      {"measurement": "TC50", "setting": "HEPG22.2.15; first experiment", "value": 16.3, "unit": "µg/mL"},
      {"measurement": "TC50", "setting": "HEPG22.2.15; replicate experiment", "value": 16.8, "unit": "µg/mL"},
      {"measurement": "Toxicity Values, % cell control", "setting": "TPA-induced BCBL-1 cells; 0.64 μM", "value": 110.5, "unit": "%"},
      {"measurement": "Toxicity Values, average", "setting": "TPA-induced BCBL-1 cells; 0.64 μM", "value": 1.160},
      {"measurement": "Toxicity Values, samples 1-3", "setting": "TPA-induced BCBL-1 cells; 0.64 μM", "value": "1.034 and 1.201 and 1.245"},
      {"measurement": "Toxicity Values, % cell control", "setting": "TPA-induced BCBL-1 cells; 2 μM", "value": 111.7, "unit": "%"},
      {"measurement": "Toxicity Values, average", "setting": "TPA-induced BCBL-1 cells; 2 μM", "value": 1.172},
      {"measurement": "Toxicity Values, samples 1-3", "setting": "TPA-induced BCBL-1 cells; 2 μM", "value": "1.155 and 1.182 and 1.179"},
      {"measurement": "Toxicity Values, % cell control", "setting": "TPA-induced BCBL-1 cells; 6.4 μM", "value": 111.5, "unit": "%"},
      {"measurement": "Toxicity Values, average", "setting": "TPA-induced BCBL-1 cells; 6.4 μM", "value": 1.170},
      {"measurement": "Toxicity Values, samples 1-3", "setting": "TPA-induced BCBL-1 cells; 6.4 μM", "value": "1.198 and 1.119 and 1.193"},
      {"measurement": "Toxicity Values, % cell control", "setting": "TPA-induced BCBL-1 cells; 20 μM", "value": 69.5, "unit": "%"},
      {"measurement": "Toxicity Values, average", "setting": "TPA-induced BCBL-1 cells; 20 μM", "value": 0.729},
      {"measurement": "Toxicity Values, samples 1-3", "setting": "TPA-induced BCBL-1 cells; 20 μM", "value": "0.701 and 0.706 and 0.782"},
      {"measurement": "Toxicity Values, % cell control", "setting": "TPA-induced BCBL-1 cells; 64 μM", "value": 1.5, "unit": "%"},
      {"measurement": "Toxicity Values, average", "setting": "TPA-induced BCBL-1 cells; 64 μM", "value": 0.016},
      {"measurement": "Toxicity Values, samples 1-3", "setting": "TPA-induced BCBL-1 cells; 64 μM", "value": "0.020 and 0.016 and 0.013"},
      {"measurement": "Toxicity Values, % cell control", "setting": "TPA-induced BCBL-1 cells; 200 μM", "value": 6.4, "unit": "%"},
      {"measurement": "Toxicity Values, average", "setting": "TPA-induced BCBL-1 cells; 200 μM", "value": 0.067},
      {"measurement": "Toxicity Values, samples 1-3", "setting": "TPA-induced BCBL-1 cells; 200 μM", "value": "0.068 and 0.067"},
      {"measurement": "CC50", "setting": "[1]", "value": 32.6, "unit": "µM"}
    ]}
  ]
}
